Measured values taken from ChEMBL document CHEMBL1128100, “Synthesis and evaluation of novel daunomycin-phosphate-sulfate --glucuronide and --glucoside prodrugs for application in adept” (Bioorg Med Chem Lett, 1995).
Where a name gives a salt, the structure may show the parent alone.

Columns and labels:
M19-MEL = assay: Antiproliferative activity of compound was tested against melanoma (M-19) human tumor cells; assay type: functional, cell-based
MCF7 = assay: Antiproliferative activity of compound was tested against mammary carcinoma (MCF-7) human tumor cells; assay type: functional, cell-based
EVSA-T = assay: Antiproliferative activity of compound was tested against mammary carcinoma (EVSAT) human tumor cells; assay type: functional, cell-based
IGROV-1 = assay: Antiproliferative activity of compound was tested against ovarian carcinoma (IGROV) human tumor cells; assay type: functional, cell-based
A498 = assay: Antiproliferative activity of compound was tested against renal cancer (A-498) human tumor cells; assay type: functional, cell-based
beta-glucuronidase = assay: Compound was tested for enzyme activation with 0.03 U/mL beta-glucuronidase by measuring its half-life; conditions: beta-glucuronidase (isolated enzyme)
WiDr = assay: Antiproliferative activity of compound was tested against colon carcinoma (WiDr) human tumor cells; assay type: functional, cell-based
beta-glucosidase = assay: Compound was tested for enzyme activation with 0.3 U/mL beta-glucosidase by measuring its half-life; conditions: beta-glucosidase (isolated enzyme)
IGR-37 cell line = assay: Antiproliferative activity of compound was tested against melanoma (IgR-37) human tumor cells; assay type: functional, cell-based
T-24 = assay: Antiproliferative activity of compound was tested against bladder carcinoma (T-24) human tumor cells; assay type: functional, cell-based
A204 = assay: Antiproliferative activity of compound was tested against rhabdomyosarcoma (A-204) human tumor cells; assay type: functional, cell-based

| SMILES | IC50 (IGR-37 cell line) [µM] | IC50 (MCF7; Homo sapiens, MCF7) [µM] | IC50 (T-24) [µM] | IC50 (A204) [µM] | IC50 (WiDr; Homo sapiens, WiDr) [µM] | other results |
| --- | --- | --- | --- | --- | --- | --- |
| COc1cccc2c1C(=O)c1c(O)c3c(c(O)c1C2=O)C[C@@](O)(C(C)=O)C[C@@H]3O[C@H]1C[C@@H](NC(=O)O[C@@H]2O[C@@H](C(=O)[O-])[C@@H](O)[C@H](O)[C@@H]2O)[C@H](O)[C@H](C)O1.[Na+] | – | – | – | – | – | IC50 (M19-MEL; m19-mel): 15800 µM; IC50 (MCF7; mcf7): 11200 µM; IC50 (EVSA-T; evsa-t): 13500 µM; IC50 (IGROV-1; igrov-1): 36900 µM; IC50 (A498; a498): 12100 µM; half-life (beta-glucuronidase): 137 h |
| COc1cccc2c1C(=O)c1c(O)c3c(c(O)c1C2=O)C[C@@](O)(C(C)=O)C[C@@H]3O[C@H]1C[C@@H](NC(=O)O[C@@H]2O[C@@H](C(=O)O)[C@@H](O)[C@H](O)[C@@H]2O)[C@H](O)[C@H](C)O1 | – | – | – | – | – | IC50 (WiDr; widr): 370 µM; IC50 (M19-MEL; m19-mel): 200 µM; IC50 (MCF7; mcf7): 125 µM; IC50 (EVSA-T; evsa-t): 280 µM; IC50 (IGROV-1; igrov-1): 520 µM; IC50 (A498; a498): 250 µM; half-life (beta-glucosidase): > 133 h |
| COc1cccc2c1C(=O)c1c(O)c3c(c(O)c1C2=O)C[C@@](O)(C(C)=O)C[C@@H]3O[C@H]1C[C@@H](N)[C@H](OS(=O)(=O)O)[C@H](C)O1 | 3000 | 870 | 5500 | 1.3 | – | – |
| COc1cccc2c1C(=O)c1c(O)c3c(c(O)c1C2=O)C[C@@](O)(C(C)=O)C[C@@H]3O[C@H]1C[C@@H](NS(=O)(=O)O)[C@H](O)[C@H](C)O1 | – | 10400 | – | 4.9 | – | – |
| COc1cccc2c1C(=O)c1c(O)c3c(c(O)c1C2=O)C[C@@](O)(C(C)=O)C[C@@H]3O[C@H]1C[C@@H](NP(=O)(O)O)[C@H](O)[C@H](C)O1 | 96 | 370 | 2 | 17 | 10 | – |
| COc1cccc2c1C(=O)c1c(O)c3c(c(O)c1C2=O)C[C@@](O)(C(C)=O)C[C@@H]3O[C@H]1C[C@@H](N)[C@H](OP(=O)(O)O)[C@H](C)O1 | 45 | 89 | 3 | 17 | 58 | – |
| COc1cccc2c1C(=O)c1c(O)c3c(c(O)c1C2=O)C[C@@](O)(C(C)=O)C[C@@H]3O[C@H]1C[C@H](N)[C@H](O)[C@H](C)O1 [DAUNORUBICIN HYDROCHLORIDE] | 11 | 2 | 2 | 3 | 7 | IC50 (M19-MEL; Homo sapiens, M19-MEL): 2 µM; IC50 (EVSA-T; Homo sapiens, EVSA-T): 2 µM; IC50 (IGROV-1; Homo sapiens, IGROV-1): 18 µM; IC50 (A498; Homo sapiens, A498): 3 µM |
